Eight compounds from patent US10239835B2, “N-alkylaryl-5-oxyaryl-octahydro-cyclopenta[c]pyrrole negative allosteric modulators of NR2B” (Luc Therapeutics, Inc., priority 2014, dated 2019) can be followed below.

Test [1] concerns the target HEK293 cells expressing NR1/NR2B (Homo sapiens (Human), UniProt Q05586+Q13224). The experiment in a line: NR2B NAM Assay (FDSS Ca2+ influx cell assay). The format is cell-based. The following applies: NR2B NAM assay, class of inhibitory concentration; read-out: Activity Category. The procedure, abridged:
(§1)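 Tetracycline-induced HEK293 NR1/NR2B cells (with ARL-15896), fluo-8 loaded, pre-incubated 10 min with compound (0.001–30 µM, 0.1% DMSO) before stimulation with 3 µM glutamate, 3 µM glycine, 1 mM Ca2+ in Ca/Mg-free HBSS-HEPES. Ca2+ influx recorded 3 min on FDSS; end/baseline fluorescence ratio expressed as inhibition relative to MK801.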

Test [2] concerns the target HEK293 cells expressing NR1/NR2B (Homo sapiens (Human), UniProt Q13224). Kind of test: NR2B NAM Assay (FDSS Ca2+ influx cell assay). The format is cell-based. The following applies: Ca2+ influx inhibition relative to MK801; 3 μM glutamate, 3 μM glycine, 1 mM Ca2+; read-out: NR2B NAM IC50. The procedure, abridged:
as §1

Sequence of HEK293 cells expressing NR1/NR2B (Homo sapiens (Human), UniProt Q05586+Q13224) (Q13224 27-1484, other chains not shown): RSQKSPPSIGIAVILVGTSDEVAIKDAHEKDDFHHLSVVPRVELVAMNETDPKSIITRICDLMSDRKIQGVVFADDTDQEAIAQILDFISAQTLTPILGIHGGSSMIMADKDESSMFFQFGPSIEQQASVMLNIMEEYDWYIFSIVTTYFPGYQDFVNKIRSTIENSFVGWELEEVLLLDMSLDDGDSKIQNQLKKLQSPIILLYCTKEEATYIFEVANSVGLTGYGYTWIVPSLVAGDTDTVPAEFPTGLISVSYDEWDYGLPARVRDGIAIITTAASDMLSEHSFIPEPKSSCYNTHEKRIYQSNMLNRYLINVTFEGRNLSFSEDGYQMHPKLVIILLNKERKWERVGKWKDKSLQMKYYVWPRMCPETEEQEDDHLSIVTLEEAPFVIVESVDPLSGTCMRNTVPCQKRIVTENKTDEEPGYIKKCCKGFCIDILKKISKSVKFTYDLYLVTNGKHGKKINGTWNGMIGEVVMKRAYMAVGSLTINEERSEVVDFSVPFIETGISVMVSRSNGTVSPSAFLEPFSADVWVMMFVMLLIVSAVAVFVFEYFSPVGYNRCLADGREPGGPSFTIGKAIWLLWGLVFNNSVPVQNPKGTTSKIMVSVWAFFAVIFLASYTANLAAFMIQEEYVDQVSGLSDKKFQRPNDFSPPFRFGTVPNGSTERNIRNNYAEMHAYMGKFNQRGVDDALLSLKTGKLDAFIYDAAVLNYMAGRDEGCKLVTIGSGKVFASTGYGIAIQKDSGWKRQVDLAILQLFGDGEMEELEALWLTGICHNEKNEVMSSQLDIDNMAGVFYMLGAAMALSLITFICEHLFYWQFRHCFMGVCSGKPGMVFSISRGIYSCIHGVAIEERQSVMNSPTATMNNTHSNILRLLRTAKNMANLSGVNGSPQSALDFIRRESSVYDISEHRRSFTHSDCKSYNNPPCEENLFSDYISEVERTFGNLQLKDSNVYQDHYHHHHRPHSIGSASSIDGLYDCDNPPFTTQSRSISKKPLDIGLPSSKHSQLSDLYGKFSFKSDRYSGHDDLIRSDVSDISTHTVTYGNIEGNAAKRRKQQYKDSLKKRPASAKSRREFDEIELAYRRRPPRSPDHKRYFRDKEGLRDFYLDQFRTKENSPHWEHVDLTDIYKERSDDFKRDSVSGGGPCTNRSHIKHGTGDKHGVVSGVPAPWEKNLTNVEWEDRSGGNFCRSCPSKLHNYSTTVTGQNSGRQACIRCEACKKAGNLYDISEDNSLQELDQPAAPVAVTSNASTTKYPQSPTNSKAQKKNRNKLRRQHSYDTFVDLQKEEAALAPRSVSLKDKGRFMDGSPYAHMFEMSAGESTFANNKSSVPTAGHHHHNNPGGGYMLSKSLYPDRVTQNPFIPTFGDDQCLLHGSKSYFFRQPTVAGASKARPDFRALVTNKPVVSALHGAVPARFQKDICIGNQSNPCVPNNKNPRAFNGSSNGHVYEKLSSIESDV
Sequence of HEK293 cells expressing NR1/NR2B (Homo sapiens (Human), UniProt Q13224) (Q13224 27-1484, other chains not shown): as above

Regarding `Oc1ccc(C(O)CN2C[C@H]3C[C@H](Oc4ccc(F)cc4)C[C@H]3C2)cc1` (stereo partly shown), the figures for the IC50 in test [1] and in test [2] were less than 100 nM and 13 nM, respectively.

With `O=C(CN1C[C@H]2C[C@@H](Oc3cc(F)cc(F)c3)C[C@H]2C1)c1ccc(O)cn1`, the IC50 in test [1] is more than 10000 nM; in test [2] it was 10000 nM.

`Oc1ccc(C(O)CN2C[C@H]3C[C@@H](Oc4cc(F)cc(F)c4)C[C@H]3C2)nc1` (stereo partly shown): the values for the IC50 in test [1] and in test [2] were 1000 to 10000 nM and 2920 nM, respectively.

For the compound `COc1ccc(O[C@@H]2C[C@@H]3CN(CC(=O)c4ccc(O)cc4)C[C@@H]3C2)cc1`, the results for the IC50 in test [1] and in test [2] were less than 100 nM and 57.3 nM, respectively.

As for `COc1ccc(O[C@@H]2C[C@@H]3CN(CC(=O)c4ccc(O)c(F)c4)C[C@@H]3C2)cc1`, the values for the IC50 in test [1] and in test [2] were 100 to 1000 nM and 250 nM, respectively.

In the case of `COc1ccc(O[C@@H]2C[C@@H]3CN(CC(O)c4ccc(O)c(F)c4)C[C@@H]3C2)cc1` (stereo partly shown), the IC50 in test [1] was less than 100 nM; in test [2] it was 83.9 nM.

On to `O=C(CN1C[C@H]2C[C@@H](Oc3ccc(F)cc3)C[C@H]2C1)c1ccc(O)c(F)c1`, for which the IC50 in test [1] was less than 100 nM; in test [2], 53.2 nM.

For `OC(CN1C[C@H]2C[C@H](Oc3ccc(F)cc3)C[C@H]2C1)c1cn[nH]c1` (stereo partly shown) [drawing 256], the IC50 in test [1] was 1000 to 10000 nM; in test [2], 4890 nM.
